Laboratory results published in patent US4354039A, “Chlorocitric acids” (Hoffmann-La Roche Inc., priority 1981, dated 1982).
Where “and” joins values, the source holds several entries; their conditions need not be identical. Equal entries are not always repeated. Where two headings read alike, the source gives them in different places.

Columns and labels:
[1] = Anorectic activity, acute, pyramiding dose and chronic studies (summary statements); assay type: in vivo, mammals; conditions: in words
[2] = Effect of stereoisomers on food consumption of meal-fed rats (Example 14); assay type: in vivo, Charles River female rats
Method: Animals were fasted 48 hr, then meal-fed the 70% glucose diet described by A. C. […] Following 5 to 12 days alimentation on the meal-feeding regimen, rats were dosed with the appropriate compounds orally by intubation 1/2 hr before the 3 hr meal. Food cups were weighed immediately after the meal. The control group consisted of 5 to 10 rats, while the experimental group consisted of 4 to 6 rats.

[3] = test system: isolated rat hepatocytes; experiment: Fatty acid and cholesterol synthesis and CO2 production in isolated hepatocytes (Example 23); assay type: cell-based, Female Charles River rats; conditions: for activity at 2000 µM: Rattus norvegicus, Hepatocyte, 1 h
Method: Female Charles River rats were fasted 48 hr, then meal-fed a 1% corn oil, 70% glucose diet for 7 to 14 days from 8 to 11 a.m. The isolated rat hepatocytes were prepared by perfusing the liver in situ. The hepatocytes were incubated in an oscillating water bath at 37° C. for 60 min. […] All incubations were done in triplicate and all experiments were repeated at least twice. […] The contents of the center well were transferred to scintillation counting fluid and ^14 CO2 content was determined. […] The media was then acidified, extracted with hexane, and the extract counted (to determine the rate of lipogenesis). The conversion of ^3 H2 O and [^14 C]alanine into fatty acids or sterols was determined in a PDS/3, Mark II liquid scintillation counting system.

[4] = Effect on stomach emptying, [14C] glucose load (Example 25); assay type: in vivo, Rats; conditions: 0.33 mmoles/kg oral, 60 min after [14C] glucose load
Method: Rats were trained to consume a 3 hr 70% glucose meal from 8 a.m. to 11 a.m. daily. On the experimental day, compounds were administered orally by intubation 30 min before a [^14 C] glucose load was given also by intubation. […] Sixty minutes later the rats were killed by decapitation; blood and stomachs were collected on ice.
Data are expressed as follows: dpm×10^3 per ml of serum and dpm×10^3 per stomach.

[5] = Body weight and food intake in meal-fed rats, 16 day study (Example 19); assay type: in vivo, Charles River female rats; conditions: baseline
Method: Two month old Charles River female rats (Charles River Breeding Laboratories, Wilmington, Mass.) were individually housed in wire-bottomedcages in a temperature-regulated (22° C.) light-controlled room (12 hr light, 6 a.m. to 6 p.m. and 12 hr dark, 6 p.m. to 6 a.m.). […] (1) control, (2) (-)-threo-chlorocitric acid (1.0 mmoles/kg, 227 mg/kg) administered by oral intubation 30 min before the 3 hr meal, and (3) (-)-threo-chlorocitric acid (1.1 mmoles/kg, 250 mg/kg) as a dietary admixture for the 3 hr meal. Treatment was continued for 16 days. The amount of body weight gained and food consumed during the study were determined.

[6] = Body weight and food intake in meal-fed rats, oral, 17 day study (Example 21); assay type: in vivo, Charles River female rats; conditions: for CBWG, cumulative body weight gain / CFC, cumulative food consumption / FBW, final body weight: 17 days; for IBW, initial body weight: baseline
Method: Two month old Charles River female rats (Charles River Breeding Laboratories, Wilmington, Mass.) were individually housed in wire-bottomedcages in a temperature-regulated (22° C.) light-controlled room (12 hr light, 6 a.m. to 6 p.m. and 12 hr dark, 6 p.m. to 6 a.m.). […] On the 8th day, the animals were administered water or (-)-threo-chlorocitric acid at the indicated concentration by oral intubation 30 min before the 3 hr meal. Treatment was continued for 17 days. Food cups were weighed immediately after the meal. The amount of body weight gained and food consumed during the period was determined.

[7] = Anorectic activities of stereoisomers, 3-day food consumption and body weight gain (Example 16); assay type: in vivo, Charles River female rats; conditions: 1.32 mmoles/kg oral, 3 days
Method: Charles River female rats (Charles River Breeding Laboratories, Wilmington, Mass.), weighing 196 to 210 g, were individually housed in wire-bottomed cages in a temperature-regulated (22° C.) light-controlled room (12 hr light, 6 a.m. to 6 p.m. and 12 hr dark, 6 p.m. to 6 a.m.). Animals were fasted 48 hr, then meal-fed a 70% glucose diet from 8 to 11 a.m. Following 5 to 12 days alimentation on the meal-feeding regimen, rats were dosed with the appropriate compounds orally by intubation 1/2 hr before the 3 hr meal for 3 days. The total food consumption and body weight gained during the 3 day period were determined. The control group consisted of 16 rats, while the experimental group consists of 8 rats.

[8] = Chow, 0.25 mmoles (57 mg)/kg oral
[9] = Chow, 0.50 mmoles (114 mg)/kg oral
[10] = Chow, 1.00 mmoles (227 mg)/kg oral

Compound: O=C(O)C[C@@](O)(C(=O)O)[C@@H](Cl)C(=O)O [(-)-threo-Chlorocitric acid]
- activity in the acute meal-fed assay utilizing three diets and in pyramiding dose studies, reduction in food consumption [1]: significantly more active
- appetite suppression and reduction of body weight gain ([1]; short- and long-term chronic studies): suppressed appetite and reduced body weight gain in mammals more efficaciously than hydroxycitric acid or citric acid
- Food Consumption, % of control ([2]; 0.66 mmoles/kg oral): 59 % of control
- Food Consumption, % of control ([2]; 2.63 mmoles/kg oral): 16 % of control
- CO2 Production, [14C]alanine converted ([3]; 2 mM, 60 min, 37° C., 2000 µM): 91 % of control
- Cholesterol Synthesis, [14C]alanine converted ([3]; 2 mM, 60 min, 37° C., 2000 µM): 92 % of control
- Fatty Acid Synthesis, 3H2O converted ([3]; 2 mM, 60 min, 37° C., 2000 µM): 95 % of control
- Fatty Acid Synthesis, [14C]alanine converted ([3]; 2 mM, 60 min, 37° C., 2000 µM): 124 % of control and 96 % of control
- activity at 2000 µM ([3]; 2 mM, 60 min, 37° C., read-out: CO2 Production, [14C]alanine converted): 83%
- activity at 2000 µM ([3]; 2 mM, 60 min, 37° C., read-out: Cholesterol Synthesis, 3H2O converted): 116%
- activity at 2000 µM ([3]; 2 mM, 60 min, 37° C., read-out: Cholesterol Synthesis, [14C]alanine converted): 88%
- activity at 2000 µM ([3]; 2 mM, 60 min, 37° C., read-out: Fatty Acid Synthesis, 3H2O converted): 106%
- inhibition of lipid (fatty acid) and cholesterol syntheses ([3]; in words): devoid of metabolic activity as an inhibitor of lipid and cholesterol syntheses
- Serum, % of control [4]: 33 % of control
- Stomach Contents, % of control [4]: 312 % of control
- IBW, initial body weight ([5]; dietary admixture 1.1 mmoles (250 mg)/kg/day): 192 ± 5 g
- IBW, initial body weight ([5]; oral intubation 1.0 mmoles (227 mg)/kg/day): 189 ± 3 g
- CBWG, cumulative body weight gain [6, 8]: -1 ± 4 g
- CFC, cumulative food consumption [6, 8]: 186 ± 9 g
- FBW, final body weight [6, 8]: 213 ± 7 g
- IBW, initial body weight [6, 8]: 214 ± 7 g
- CBWG, cumulative body weight gain [6, 9]: -32 ± 6 g
- CFC, cumulative food consumption [6, 9]: 165 ± 9 g
- FBW, final body weight [6, 9]: 177 ± 6 g
- IBW, initial body weight [6, 9]: 209 ± 5 g
- CBWG, cumulative body weight gain [6, 10]: -30 ± 7 g
- CFC, cumulative food consumption [6, 10]: 130 ± 13 g
- FBW, final body weight [6, 10]: 176 ± 11 g
- IBW, initial body weight [6, 10]: 207 ± 3 g
- IBW, initial body weight ([6]; G-70 diet, 0.25 mmoles (57 mg)/kg oral): 198 ± 4 g
- IBW, initial body weight ([6]; G-70 diet, 0.50 mmoles (114 mg)/kg oral): 195 ± 4 g
- IBW, initial body weight ([6]; G-70 diet, 1.00 mmoles (227 mg)/kg oral): 198 ± 3 g
- 3-Day Body Weight Gain, % of initial body weight [7]: -11.0 % of initial body weight
- 3-Day Food Consumption, % of control [7]: 37 % of control
